Among the data in patent US9617258B2, “Pyrrolo[2,3-d]pyrimidinyl, pyrrolo[2,3-b]pyrazinyl and pyrrolo[2,3-d]pyridinyl acrylamides” (Pfizer Inc., priority 2013, dated 2017) are half-life values, retold here.

SMILES strings stand for the structures.

The series can be described thus: Stability of JAK3 covalent inhibitors in human whole blood.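 Note: parent compound remaining over incubation time quantified by LC-MS/MS as peak area ratio against an internal standard, using pooled K2-EDTA blood.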 It is filed as in vitro ADME. Particulars: both sexes, whole blood, 37° C., read-out: Human blood stability t1/2.
Source text: Stability of JAK3 Covalent Inhibitors in Rat and Human Whole Blood
Rat blood was collected from 3 male Sprague-Dawley rats (200-250 g, Charles River Laboratories) and pooled for each study. Human blood was collected from one male and one female healthy subjects at the Occupational Health & Wellness Center at Pfizer, Groton, CT and pooled for each study. Both rat and human blood was collected freshly into K2-EDTA tubes and kept on ice. An aliquot of the blood was transferred to microtubes and pre-warmed for 10 min at 37° C. using a heat block. […] An aliquot of the incubation mixture was removed at designated time points during the course of the incubation, mixed with an aliquot of acetonitrile containing an internal standard, vortexed and centrifuged. The resulting supernatants were removed and subjected to LC-MS/MS analyses to determine parent compound concentrations. Peak area ratios of the parent compound vs the internal standard were used to determine the % of parent compound remaining vs incubation time.
For `C=C(C(=O)N1CC[C@@H]2CCN(c3ncnc4[nH]ccc34)[C@@H]2C1)C(F)(F)F` [Example 41, 1-((3aS,7aS)-1-(7H-Pyrrolo[2,3-d]pyrimidin-4-yl)hexahydro-1H-pyrrolo[2,3-c]pyridin-6(2H)-yl)-2-(trifluoromethyl)prop-2-en-1-one], the half-life at 1 μM stood at 0.0467 h. As for `C=CC(=O)N1CCC[C@@H](Nc2ncnc3[nH]cc(F)c23)C1` [Example 42, 1-{(3R)-3-[(5-fluoro-7H-pyrrolo[2,3-d]pyrimidin-4-yl)amino]piperidin-1-yl}prop-2-en-1-one], the figure is > 6 h; as for `C=CC(=O)N1CCC[C@@H](Nc2ncnc3[nH]cc(C)c23)C1` [Example 43, 1-{(3R)-3-[(5-methyl-7H-pyrrolo[2,3-d]pyrimidin-4-yl)amino]piperidin-1-yl}prop-2-en-1-one], 4.57 h.

As for `C=CC(=O)N1CCC[C@@H](Nc2ncnc3[nH]cc(CC)c23)C1` [Example 44, 1-{(3R)-3-[(5-ethyl-7H-pyrrolo[2,3-d]pyrimidin-4-yl)amino]piperidin-1-yl}prop-2-en-1-one], the half-life at 1 μM turned out to be 2.77 h.

As for `C=CC(=O)N1CCC[C@@H](Nc2ncnc3[nH]cc(C#N)c23)C1` [Example 45, 4-{[(3R)-1-acryloylpiperidin-3-yl]amino}-7H-pyrrolo[2,3-d]pyrimidine-5-carbonitrile], the half-life at 1 μM was > 6 h. In the case of `C=CC(=O)N1CCC[C@@H](Nc2ncnc3[nH]cc(CCOC)c23)C1` [Example 46, 1-[(3R)-3-{[5-(2-methoxyethyl)-7H-pyrrolo[2,3-d]pyrimidin-4-yl]amino}piperidin-1-yl]prop-2-en-1-one] it was > 5.74 h; in that of `C=CC(=O)N1CCC[C@@H](Nc2ccnc3[nH]cc(C)c23)C1` [Example 47, 1-{(3R)-3-[(3-methyl-1H-pyrrolo[2,3-b]pyridin-4-yl)amino]piperidin-1-yl}prop-2-en-1-one], 5.26 h; in that of `C#Cc1c[nH]c2ncnc(N3CC[C@H]4CCN(C(=O)C=C)C[C@H]43)c12` [Example 48, 1-[(3aS,7aS)-1-(5-ethynyl-7H-pyrrolo[2,3-d]pyrimidin-4-yl)octahydro-6H-pyrrolo[2,3-c]pyridin-6-yl]prop-2-en-1-one], 2.5 h. In the case of `C=CC(=O)N1CC(Nc2ncnc3[nH]ccc23)CCC1CO` (centres unmarked) [Example 52, 1-[2-(Hydroxymethyl)-5-(7H-pyrrolo[2,3-d]pyrimidin-4-ylamino)piperidin-1-yl]prop-2-en-1-one] it was > 5.97 h; in that of `C=CC(=O)N1CC[C@@H](F)[C@@H](Nc2ncnc3[nH]ccc23)C1` [Example 54, 1-((3S,4R)-3-((7H-pyrrolo[2,3-d]pyrimidin-4-yl)amino)-4-fluoropiperidin-1-yl)prop-2-en-1-one], 3.5 h. In the case of `C=CC(=O)N1C[C@H](Nc2ncnc3[nH]ccc23)C[C@H](N(C)C)C1` [Example 57, 1-((3R,5S)-3-((7H-Pyrrolo[2,3-d]pyrimidin-4-yl)amino)-5-(dimethylamino)piperidin-1-yl)prop-2-en-1-one] it was 1.35 h; in that of `C=CC(=O)N1C[C@@H](C#N)C[C@@H](Nc2ncnc3[nH]ccc23)C1` [Example 58, (3S,5R)-5-((7H-pyrrolo[2,3-d]pyrimidin-4-yl)amino)-1-acryloylpiperidine-3-carbonitrile], 0.583 h.

Consider `C=CC(=O)N1CC[C@]2(C)CCN(c3ncnc4[nH]ccc34)[C@@H]2C1` [Example 59, 1-((3aS,7aS)-3a-Methyl-1-(7H-pyrrolo[2,3-d]pyrimidin-4-yl)hexahydro-1H-pyrrolo[2,3-c]pyridin-6(2H)-yl)prop-2-en-1-one], for which the half-life at 1 μM is 3.07 h. In the case of `C=CC(=O)N1C[C@H](O)C[C@@H](Nc2ncnc3[nH]ccc23)C1` [Example 60, 1-((3R,5R)-3-((7H-Pyrrolo[2,3-d]pyrimidin-4-yl)amino)-5-hydroxypiperidin-1-yl)prop-2-en-1-one] it was > 6 h. As for `C=CC(=O)N1CCC[C@@H](Nc2nc(Nc3cccnc3)nc3[nH]ccc23)C1` [Example 63, 1-[(3R)-3-{[2-(Pyridin-3-ylamino)-7H-pyrrolo[2,3-d]pyrimidin-4-yl]amino}piperidin-1-yl]prop-2-en-1-one], the figure is > 6 h. As for `C=CC(=O)N1CCC[C@@H](Nc2ncnc3[nH]cc(-c4ccc(C)nc4)c23)C1` [Example 66, (R)-1-(3-((5-(6-methylpyridin-3-yl)-7H-pyrrolo[2,3-d]pyrimidin-4-yl)amino)piperidin-1-yl)prop-2-en-1-one], the figure is > 6 h. As to `C=CC(=O)N1CC(Nc2ncnc3[nH]ccc23)CCC1(C)C` (centres unmarked) [Example 67, 1-(5-((7H-Pyrrolo[2,3-d]pyrimidin-4-yl)amino)-2,2-dimethylpiperidin-1-yl)prop-2-en-1-one], the half-life at 1 μM is > 6 h. Consider `C=CC(=O)N1CCC[C@](C)(Nc2ncnc3[nH]ccc23)C1` [Example 70, (S)-1-(3-((7H-Pyrrolo[2,3-d]pyrimidin-4-yl)amino)-3-methylpiperidin-1-yl)prop-2-en-1-one], for which the half-life at 1 μM amounted to 5.72 h. Consider `C=CC(=O)N1CCCC(C)(Nc2ncnc3[nH]ccc23)C1` (centres unmarked) [Example 71, 1-(3-((7H-Pyrrolo[2,3-d]pyrimidin-4-yl)amino)-3-methylpiperidin-1-yl)prop-2-en-1-one], for which the half-life at 1 μM was found to be 3.82 h.

In the case of `C=CC(=O)N1CC[C@@H]2CCN(c3nc(N)nc4[nH]ccc34)[C@@H]2C1` [Example 73, 1-[(3aS,7aS)-1-(2-Amino-7H-pyrrolo[2,3-d]pyrimidin-4-yl)octahydro-6H-pyrrolo[2,3-c]pyridin-6-yl]prop-2-en-1-one], the half-life at 1 μM amounted to 3.25 h. As for `C=CC(=O)N1C[C@H](C)C[C@@H](Nc2ncnc3[nH]ccc23)C1` [Example 74, 1-[(3R,5R)-3-Methyl-5-(7H-pyrrolo[2,3-d]pyrimidin-4-ylamino)piperidin-1-yl]prop-2-en-1-one], the figure is 1.72 h; as for `C=CC(=O)N1C[C@@H](C)C[C@H](Nc2ncnc3[nH]ccc23)C1` [Example 75, 1-((3S,5S)-3-((7H-Pyrrolo[2,3-d]pyrimidin-4-yl)amino)-5-methylpiperidin-1-yl)prop-2-en-1-one], > 6 h. In the case of `C=CC(=O)N1C[C@H](Nc2ncnc3[nH]ccc23)C[C@@H](OC)C1` [Example 77, 1-[(3R,5R)-3-Methoxy-5-(7H-pyrrolo[2,3-d]pyrimidin-4-ylamino)piperidin-1-yl]prop-2-en-1-one] it was 4.2 h. As for `O=C(/C=C/C(F)(F)F)N1CC[C@@H]2CCN(c3ncnc4[nH]ccc34)[C@@H]2C1` [Example 81, (2E)-4,4,4-trifluoro-1-[(3aS,7aS)-1-(7H-pyrrolo[2,3-d]pyrimidin-4-yl)octahydro-6H-pyrrolo[2,3-c]pyridin-6-yl]but-2-en-1-one], the figure is 0.282 h. On to `CN(C)C/C=C/C(=O)N1CC[C@@H]2CCN(c3ncnc4[nH]ccc34)[C@@H]2C1` [Example 82, (2E)-4-(dimethylamino)-1-[(3aS,7aS)-1-(7H-pyrrolo[2,3-d]pyrimidin-4-yl)octahydro-6H-pyrrolo[2,3-c]pyridin-6-yl]but-2-en-1-one], for which the half-life at 1 μM is > 6 h. Turning to `C=C(C)C(=O)N1CC[C@@H]2CCN(c3ncnc4[nH]ccc34)[C@@H]2C1` [Example 85, 2-methyl-1-[(3aS,7aS)-1-(7H-pyrrolo[2,3-d]pyrimidin-4-yl)octahydro-6H-pyrrolo[2,3-c]pyridin-6-yl]prop-2-en-1-one], the half-life at 1 μM is > 6 h. In the case of `C=CC(=O)N1C[C@H](Nc2ncnc3[nH]ccc23)C[C@@H](N(C)C)C1` [Example 88, 1-[(3R,5R)-3-(Dimethylamino)-5-(7H-pyrrolo[2,3-d]pyrimidin-4-ylamino)piperidin-1-yl]prop-2-en-1-one] it was 1.23 h; in that of `C=CC(=O)N1CC[C@@H]2OCCN(c3ncnc4[nH]ccc34)[C@@H]2C1` [Example 90, 1-[(4aR,8aS)-4-(7H-Pyrrolo[2,3-d]pyrimidin-4-yl)hexahydro-2H-pyrido[4,3-b][1,4]oxazin-6(5H)-yl]prop-2-en-1-one], 2.8 h; in that of `C/C=C/C(=O)N1CCC[C@@H](Nc2ncnc3[nH]ccc23)C1` [Example 95, (2E)-1-[(3R)-3-(7H-pyrrolo[2,3-d]pyrimidin-4-ylamino)piperidin-1-yl]but-2-en-1-one], > 6 h. As to `COCCc1c[nH]c2ncnc(N[C@@H]3CCCN(C(=O)/C=C/CN(C)C)C3)c12` [Example 108, (2E)-4-(dimethylamino)-1-[(3R)-3-{[5-(2-methoxyethyl)-7H-pyrrolo[2,3-d]pyrimidin-4-yl]amino}pipendin-1-yl]but-2-en-1-one], the half-life at 1 μM is > 6 h. In the case of `C=CC(=O)N1CC[C@@H](C)[C@H](Nc2ncnc3[nH]ccc23)C1` [Example 112, 1-[(3S,4R)-4-Methyl-3-(7H-pyrrolo[2,3-d]pyrimidin-4-ylamino)piperidin-1-yl]prop-2-en-1-one] it was 2.37 h; in that of `C=CC(=O)N1C[C@@H](Nc2ncnc3[nH]ccc23)CC[C@H]1CO` [Example 117, 1-[(2S,5S)-2-(Hydroxymethyl)-5-(7H-pyrrolo[2,3-d]pyrimidin-4-ylamino)piperidin-1-yl]prop-2-en-1-one], > 6 h. With `C=CC(=O)N1C[C@H](C)C[C@H](Nc2ncnc3[nH]ccc23)C1` [Example 128, 1-[(3R,5S)-3-Methyl-5-(7H-pyrrolo[2,3-d]pyrimidin-4-ylamino)piperidin-1-yl]prop-2-en-1-one], the half-life at 1 μM amounted to 5.07 h. In the case of `C=CC(=O)N1C[C@@H](O)C[C@@H](Nc2ncnc3[nH]cc(Cl)c23)C1` [Example 162, 1-{(3R,5S)-3-[(5-Chloro-7H-pyrrolo[2,3-d]pyrimidin-4-yl)amino]-5-hydroxypiperidin-1-yl}prop-2-en-1-one] it was > 6 h; in that of `C=CC(=O)N1C[C@H](Nc2ncnc3[nH]cc(C#N)c23)CC[C@@H]1C` [Example 163, 4-{[(3R,6S)-1-Acryloyl-6-methylpiperidin-3-yl]amino}-7H-pyrrolo[2,3-d]pyrimidine-5-carbonitrile], 4.83 h.
